In ChEMBL document CHEMBL5113414, “New TRPM8 blockers exert anticancer activity over castration-resistant prostate cancer models” (Eur J Med Chem, 2022):
Calls of active or inactive are those of the source. The rule behind the calls is not given here.

Experiments:
[1] = target: T1, Transient receptor potential cation channel subfamily M member 8 (Rattus norvegicus, UniProt Q8R455); assay: Antagonist activity at rat TRPM8 channel transfected in HEK293 cells assessed as inhibition of calcium currents by Fluo-4 NW dye based fluorimetric assay; format: cell-based
T1 sequence (Q8R455 whole entry): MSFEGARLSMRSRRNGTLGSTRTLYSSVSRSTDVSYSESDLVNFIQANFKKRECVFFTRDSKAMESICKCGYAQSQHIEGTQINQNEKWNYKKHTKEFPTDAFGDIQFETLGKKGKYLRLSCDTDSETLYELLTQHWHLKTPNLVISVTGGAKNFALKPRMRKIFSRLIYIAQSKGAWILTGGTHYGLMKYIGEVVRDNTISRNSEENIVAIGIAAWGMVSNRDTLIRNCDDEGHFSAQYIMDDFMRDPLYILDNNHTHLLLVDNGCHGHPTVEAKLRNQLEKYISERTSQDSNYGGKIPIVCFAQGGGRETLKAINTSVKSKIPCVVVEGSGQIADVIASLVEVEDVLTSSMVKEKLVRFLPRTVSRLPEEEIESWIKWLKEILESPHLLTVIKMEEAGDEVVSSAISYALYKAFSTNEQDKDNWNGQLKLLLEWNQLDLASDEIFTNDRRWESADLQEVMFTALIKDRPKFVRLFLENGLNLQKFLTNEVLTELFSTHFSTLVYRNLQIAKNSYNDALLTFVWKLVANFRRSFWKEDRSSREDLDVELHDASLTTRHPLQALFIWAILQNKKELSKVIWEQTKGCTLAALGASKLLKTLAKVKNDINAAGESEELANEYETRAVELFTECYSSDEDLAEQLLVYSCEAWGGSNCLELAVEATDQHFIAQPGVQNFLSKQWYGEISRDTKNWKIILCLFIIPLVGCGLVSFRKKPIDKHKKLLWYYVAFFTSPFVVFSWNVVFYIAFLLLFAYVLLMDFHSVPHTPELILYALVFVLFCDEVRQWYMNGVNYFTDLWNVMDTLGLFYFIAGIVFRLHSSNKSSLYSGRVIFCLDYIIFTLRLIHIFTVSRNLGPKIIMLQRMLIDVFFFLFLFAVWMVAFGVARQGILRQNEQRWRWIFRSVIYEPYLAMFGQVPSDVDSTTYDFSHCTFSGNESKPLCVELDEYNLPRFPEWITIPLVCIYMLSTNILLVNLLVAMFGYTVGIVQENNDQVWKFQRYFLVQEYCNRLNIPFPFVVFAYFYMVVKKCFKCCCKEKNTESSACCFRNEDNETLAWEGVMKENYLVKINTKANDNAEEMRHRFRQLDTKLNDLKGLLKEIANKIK

PC-3 = assay: Inhibition of DNA synthesis in human PC-3 cells at 0.01 to 10 uM incubated for 18 hrs by BrdU incorporation assay; format: functional, cell-based; conditions: dose 0.01-10 µM
[2] = target: T1, Transient receptor potential cation channel subfamily M member 8; assay: Antagonist activity at rat TRPM8 channel transfected in HEK293 cells assessed as inhibition of menthol-induced calcium currents at -60 mV measured for 90 secs by whole cell patch clamp method; format: cell-based
PNT2 [3] = assay: Inhibition of DNA synthesis in human PNT2 cells at 0.01 to 10 uM incubated for 18 hrs by BrdU incorporation assay; format: functional, cell-based; conditions: dose 0.01-10 µM
LNCaP [4] = assay: Inhibition of R1881-induced DNA synthesis in human LNCaP cells at 0.01 to 10 uM incubated for 18 hrs by BrdU incorporation assay; format: functional, cell-based; conditions: dose 0.01-10 µM
LNCaP C4-2B [5] = assay: Inhibition of androgen-resistant human LNCaP C4-2B cells at 1 uM incubated for 18 hrs by BrdU incorporation assay; format: functional, cell-based
CWR22R [6] = assay: Inhibition of R1881-induced cell spheroid size of human 22Rv1 cells at 1 uM with medium replacement for every 3 days incubated for 17 days by phase contrast microscopy; format: functional, cell-based; conditions: time 17.0 day
PNT2 [7] = assay: Inhibition of R1881-induced DNA synthesis in human PNT2 cells at 10 uM incubated for 18 hrs by BrdU incorporation assay; format: functional, cell-based
LNCaP [8] = assay: Inhibition of R1881-induced cell spheroid size of human LNCaP cells at 1 uM with medium replacement for every 3 days incubated for 17 days by phase contrast microscopy; format: functional, cell-based; conditions: time 17.0 day
[9] = target: Transient receptor potential cation channel subfamily M member 8 (Rattus norvegicus) (UniProt Q8R455); assay: Inhibition of rat TRPM8 channel transfected in HEK293 cells assessed as inhibition of menthol-induced calcium currents at 0.01 to 10 uM at -60 mV measured for 90 secs by whole cell patch clamp method; format: cell-based; conditions: dose 0.01-10 µM, time 90.0 sec, DDE = dose-dependent effect
Transient receptor potential cation channel subfamily M member 8 (Rattus norvegicus), sequence (Q8R455 whole entry, looked up): as the sequence (Q8R455 whole entry) above

CWR22R [10] = assay: Inhibition of R1881-induced DNA synthesis in human 22Rv1 cells at 1 to 10 uM incubated for 18 hrs by BrdU incorporation assay; format: functional, cell-based; conditions: dose 1-10 µM
PNT2 [11] = assay: Inhibition of R1881-induced DNA synthesis in human PNT2 cells at 1 uM incubated for 18 hrs by BrdU incorporation assay; format: functional, cell-based
LNCaP C4-2B [12] = assay: Inhibition of androgen-resistant human LNCaP C4-2B cells at 0.1 uM incubated for 18 hrs by BrdU incorporation assay; format: functional, cell-based

## O=C(NCc1ccc(F)cc1)[C@@H]1Cc2cc(O)c(O)cc2[C@H](c2ccc(F)cc2)N1
[1]
  IC50: 17500 nM

## O=C(NCc1ccc(F)cc1)[C@@H]1Cc2cc(O)c(O)cc2[C@@H](c2ccc(F)cc2)N1
[1]
  IC50: 850 nM

## COC(=O)[C@H](Cc1ccc(C)cc1)N(Cc1ccccc1)Cc1ccccc1
[1]
  IC50: 290 nM

## COC(=O)[C@H](Cc1ccc(Cl)cc1)N(Cc1ccccc1)Cc1ccccc1
[1]
  IC50: 280 nM

## COC(=O)[C@H](Cc1ccc(N)cc1)N(Cc1ccccc1)Cc1ccccc1
PC-3
  inhibition: Active
[2]
  IC50: 110 nM
PNT2 [3]
  inhibition: Active
LNCaP [4]
  inhibition: Active
[1]
  IC50: 210 nM
LNCaP C4-2B [5]
  inhibition: Active
CWR22R [6]
  inhibition: Active
PNT2 [7]
  inhibition: Active
LNCaP [8]
  inhibition: Active
[9]
  inhibition: Dde
CWR22R [10]
  inhibition: Active
PNT2 [11]
  inhibition: Active

## O=C1[C@@H]2Cc3cc(O)c(O)cc3[C@@H](c3ccc(F)cc3)N2C(=O)N1Cc1ccc(F)cc1
[1]
  IC50: 1700 nM

## COC(=O)[C@H](Cc1ccccc1)N(Cc1ccccc1)Cc1ccccc1
[1]
  IC50: 320 nM

## COC(=O)[C@H](Cc1ccc(O)c(O)c1)N(Cc1ccccc1)Cc1ccccc1
PC-3
  inhibition: Active
[2]
  IC50: 100 nM
PNT2 [3]
  inhibition: Active
[1]
  IC50: 490 nM
LNCaP C4-2B [5]
  inhibition: Active
CWR22R [6]
  inhibition: Active
PNT2 [7]
  inhibition: Active
LNCaP [8]
  inhibition: Active
[9]
  inhibition: Dde
CWR22R [10]
  inhibition: Active

## O=C1[C@@H]2Cc3cc(O)c(O)cc3[C@@H](c3ccc(F)cc3)N2C(=O)N1c1cccc(C(F)(F)F)c1
[1]
  IC50: 1200 nM

## COC(=O)[C@H](Cc1ccc(O)cc1)N(Cc1ccccc1)Cc1ccccc1
[1]
  IC50: 250 nM

## COC(=O)[C@H](Cc1ccc([N+](=O)[O-])cc1)N(Cc1ccccc1)Cc1ccccc1
PC-3
  inhibition: Active
[2]
  IC50: 60 nM
PNT2 [3]
  inhibition: Active
LNCaP [4]
  inhibition: Active
LNCaP C4-2B [12]
  inhibition: Active
[1]
  IC50: 110 nM
LNCaP C4-2B [5]
  inhibition: Active
CWR22R [6]
  inhibition: Active
PNT2 [7]
  inhibition: Active
LNCaP [8]
  inhibition: Active
[9]
  inhibition: Dde
CWR22R [10]
  inhibition: Active

## O=C1[C@H]2Cc3cc(O)c(O)cc3[C@H](c3ccc(F)cc3)N2C(=O)N1Cc1ccc(F)cc1
[1]
  IC50: 2200 nM

## O=C1[C@H]2Cc3cc(O)c(O)cc3[C@H](c3ccc(F)cc3)N2C(=O)N1c1cccc(C(F)(F)F)c1
[1]
  IC50: 2100 nM
